Assay results: PMC9649909, “Wnt-pathway inhibitors with selective activity against triple-negative breast cancer: From thienopyrimidine to quinazoline inhibitors” (Frontiers in Pharmacology, 2022)
Read-outs that look alike come from different tables or passages of the source.

Legend:
[1] = system: HCC1806 TNBC cell line; assay: MTT survival assay HCC1806; format: cell-based; conditions: for IC50: Homo sapiens, HCC1806
Experimental: (§1) Indicated TNBC cell lines were detached and resuspended at 120,000 cells/ml and added into each well of a transparent 384-well plate in the final volume of 20 µl/well. The cells were maintained in DMEM containing 10% FBS at 37°C, 5% CO2 overnight. Next day, the medium in each well was replaced by 40 μl of the fresh one containing the indicated concentrations of compounds. In case of drug combination experiments, each compound dilution was delivered in corresponding well in 20 μl of medium. […] After incubation for 3–4 days, depending on the cell line, the medium in each well was replaced by 25 μl of 0.5 mg/ml Thiazolyl blue solution in 1xPBS following by incubation for 3 h at 37°C. Then the solution was removed and 25 μl DMSO was added into each well. Absorbance at 510 nm was measured in a Tecan Infinite M200 PRO plate reader.

[2] = system: β-catenin-dependent Wnt-pathway; assay: TopFlash luciferase reporter assay, CHIR99021-stimulated, HCC1395; format: cell-based; conditions: for TopFlash activity in words: CHIR99021; for IC50 / Emax: Homo sapiens; for GSK HCC1395 Comments: Table S2; for Emax: read-out: HCC1395 TopFlash Efficacy
Description: Both stimulations abolish formation of the destruction complex, a multiprotein complex consisting of Axin, adenomatous polyposis coli (APC), glycogen synthase kinase three beta (GSK3β), and casein kinase one alpha (CK1α). Upon inactivation of the complex, β-catenin accumulates in the cytoplasm and translocates into the nucleus where it interacts with transcription factors. These downstream events are quantified by a Luciferase transcription-based readout assay (TopFlash assay).

[3] = system: HCC1395 TNBC cell line; assay: MTT survival assay HCC1395; format: cell-based; conditions: Homo sapiens, HCC1395; Table S2; read-out: MTT HCC-1395 IC50
Experimental: as §1

[4] = system: MDA-MB-231 TNBC cell line; assay: MTT survival assay MDA-MB-231; format: cell-based; conditions: Table S2; for IC50: Homo sapiens, MDA-MB-231, read-out: MTT MDA-MB-231 IC50
Experimental: as §1

[5] = system: MDA-MB-468 TNBC cell line; assay: MTT survival assay MDA-MB-468; format: cell-based; conditions: Homo sapiens, MDA-MB-468; Table S2
Experimental: as §1

[6] = system: non-cancerous breast epithelial cell line MCF10a; assay: MTT survival assay MCF10a; format: cell-based; conditions: Homo sapiens, MCF-10A; Table S2; read-out: MTT MCF10 IC50
Experimental: as §1

[7] = system: BT-20 TNBC cell line; assay: MTT survival assay BT-20; format: cell-based; conditions: Homo sapiens, BT-20; Table S2; read-out: MTT BT-20 IC50
Experimental: as §1

[8] = system: HCC1395 cells; assay: in vitro; conditions: for HCC1395 Cytotoxicity Efficacy: human
Experimental: (§2) The simplicity of the scaffold combined with synthetic accessibility allows building a library of compounds and performing structure activity relationship (SAR) studies of the three main parts of the molecule: the top part, the linker and the core (Figure 2).
(§3) The synthesized compounds were used to explore SAR of three defined areas of investigation (Figure 2). All compounds were tested in the HCC1395 TNBC cell line using the GSK3β inhibitor to induce β-catenin signaling since 4a acted downstream of GSK3β (Figure 2). Both inhibition of β-catenin signaling measured by the TopFlash reporter and cytotoxicity measured by the Renilla reporter were assessed.
(§4) The Wnt3a or CHIR99021-stimulated luciferase activity in HCC1395 TNBC cell line stably transfected with the TopFlash reporter was analyzed essentially as described for the BT-20 TNBC cell line ([Shaw et al., 2019b]; [Koval et al., 2021]). Reporter cells were seeded at 10,000 cells/well in a white opaque 384-well plate in the final volume of 20 μl of DMEM medium supplemented with 10% FCS. The cells were maintained incubated at 37°C, 5% CO2 overnight for attachment. Subsequently, they were transfected by a plasmid encoding constitutively expressed Renilla luciferase under the CMV promoter overall as described in the manufacturer’s protocol using 12 μg/ml of DNA and 40 μl/ml XtremeGENE nine reagent. The next day, the medium in each well was replaced with a 10 μl of fresh medium containing compound of interest, and, after 1 h of preincubation with the compounds, additional 10 μl of medium supplemented with Wnt3a [purified as described ([Willert et al., 2003]; [Koval and Katanaev, 2011])] or CHIR99021 were added creating respective final concentrations of 2.5 μg/ml or 5 μM of each. In case of other signal transduction reporters, no additional stimulation was performed. Compound dilutions were prepared by serial dilution in DMSO and diluted with the amount of medium necessary to obtain their final concentrations indicated on the figures and tables and maintain concentration of DMSO of 0.5% in all assay points. After overnight incubation, the supernatant in each well was removed, and the luciferase activity was measured as described ([Dyer et al., 2000]; [Huber et al., 2021]; [Pellissier et al., 2021]). The culture medium was completely removed from all wells of the plate. Finally, the luciferase activity of the firefly and Renilla luciferases was detected sequentially in individual wells of a 384-well plate through injection of corresponding measurement solutions and immediate reading (400 ms integration time) in Infinite M Plex multifunctional plate reader with injection module.

[9] = in vitro; conditions: human
Experimental: as §2, §3, §4

[10] = Table S2, read-out: MTT HCC1806 IC50
[11] = HCC1395, HCC1395, stimulation with CHIR99021 (GSK3β inhibitor), read-out: HCC1395 TopFlash IC50
[12] = HCC1395, HCC1395, stimulation with CHIR99021 (GSK3β inhibitor)
[13] = HCC1395, Table S2, TopFlash, GSK3β inhibitor stimulation, read-out: GSK HCC1395 IC50

SMILES | TopFlash activity in words ([2]; HCC1395) | IC50 [2, 11] [µM] | GSK HCC1395 Comments [2] | IC50 ([9]; HCC1395 Cytotoxicity IC50) [µM] | also measured
COc1ccc(CNc2ncnc3sccc23)cc1 [Compound 4d, N-(4-methoxybenzyl)thieno[2,3-d]pyrimidin-4-amine] | abrogated the activity | > 50 | Inactive |  | IC50 ([1]; Figure 3B heatmap, read-out: IC50, μM (HCC1806)): > 50 µM; IC50 [1, 10]: 46.5 µM; IC50 [3]: > 50 µM; IC50 [4]: > 50 µM; MTT MDA-MB-231 Comments [4]: Inactive; IC50 [5]: 14.2 µM; IC50 [6]: > 50 µM; IC50 [7]: 39.8 µM
c1ccc(Nc2ncnc3sccc23)cc1 [Compound 5f, N-phenylthieno[2,3-d]pyrimidin-4-amine] | inactive | > 50 |  |  | 
Fc1ccccc1CNc1ncnc2sccc12 [Compound 4e, N-(2-fluorobenzyl)thieno[2,3-d]pyrimidin-4-amine] |  |  | Toxic | 7.45 ± 2.08 | Cytotoxicity (Renilla) in words [8]: toxicity
COc1ccccc1CNc1ncnc2ccccc12 [Compound 9a, N-(2-methoxybenzyl)quinazolin-4-amine] |  |  | Toxic | 29 ± 14.5 | HCC1395 Cytotoxicity Efficacy [8]: 100 ± 0%
Clc1ccccc1CNc1ncnc2sccc12 [Compound 4h, N-(2-chlorobenzyl)thieno[2,3-d]pyrimidin-4-amine] |  |  | Toxic | 8.61 ± 4.38 | HCC1395 Cytotoxicity Efficacy [8]: 67.1 ± 7.8%
Cc1ccc(CNc2ncnc3sccc23)cc1 [Compound 4o, N-(4-methylbenzyl)thieno[2,3-d]pyrimidin-4-amine] |  | 4.61 ± 1.91 |  | > 50 | IC50 [1, 10]: 2.71 µM; Emax [2, 12]: 72.7 ± 19.5%; fold improvement in the activity compared to 4a ([2]; TopFlash IC50 vs 4a): 2 fold; IC50 [3]: 1.35 µM; IC50 [4]: > 10 µM; MTT MDA-MB-231 Comments [4]: Inactive; IC50 [5]: 1.02 µM; IC50 [6]: 6.18 µM; IC50 [7]: 2.85 µM
COc1ccc(CNc2ncnc3ccccc23)cc1 [Compound 9c, N-(4-methoxybenzyl)quinazolin-4-amine] |  | 4.76 ± 0.23 |  |  | IC50 [9]: > 50 µM; IC50 [1, 10]: > 10 µM; MTT HCC1806 Comments ([1]; Table S2): Inactive; HCC1395 TopFlash Efficacy ([2]; HCC1395, stimulation with CHIR99021 (GSK3β inhibitor)): 81.5 ± 10.61%; Emax [2, 12]: 81.5%; IC50 [3]: 1.17 µM; IC50 [4]: > 10 µM; MTT MDA-MB-231 Comments [4]: Inactive; IC50 [5]: 0.44 µM; IC50 [6]: 7.94 µM; IC50 [7]: 3.81 µM
CCN(Cc1cccc(OC)c1)c1ncnc2sccc12 [Compound 5i, N-ethyl-N-(3-methoxybenzyl)thieno[2,3-d]pyrimidin-4-amine] |  |  | Toxic | 8.3 ± 3.79 | HCC1395 Cytotoxicity Efficacy [8]: 64.1 ± 9.3%
N#Cc1ccc(CNc2ncnc3sccc23)cc1 [Compound 4m, 4-((thieno[2,3-d]pyrimidin-4-ylamino)methyl)benzonitrile] | abrogated the activity | > 50 | Inactive |  | GSK HCC1395 Renilla Comments [8]: Non-toxic
COc1cccc(CNc2cc(Cl)ncn2)c1 [Compound 11, 6-chloro-N-(3-methoxybenzyl)pyrimidin-4-amine] | no longer active | 58.2 ± 1.48 |  |  | Emax [2, 12]: 100%; IC50 [2, 13]: > 50 µM
CC(Nc1ncnc2ccccc12)c1ccc(F)cc1 (centres unmarked) [Compound 9h, N-(1-(4-fluorophenyl)ethyl)quinazolin-4-amine] |  | 10.7 ± 2.33 |  | 16.6 ± 6.59 | HCC1395 Cytotoxicity Efficacy [8]: 51.1 ± 21.3%; Emax [2, 12]: 66.4 ± 6.9%
N#Cc1cccc(CNc2ncnc3sccc23)c1 [Compound 4l, 3-((thieno[2,3-d]pyrimidin-4-ylamino)methyl)benzonitrile] |  |  | Toxic | 10 ± 3.36 | HCC1395 Cytotoxicity Efficacy [8]: 32.2 ± 10.5%
COc1cccc(CNc2ncnc3c(C)csc23)c1 [Compound 10, N-(3-methoxybenzyl)-7-methylthieno[3,2-d]pyrimidin-4-amine] | no longer active | > 100 | Inactive | > 100 | GSK HCC1395 Renilla Comments [8]: Non-toxic; IC50 [2, 13]: > 50 µM
COc1cccc(CNc2ccnc3ccccc23)c1 [Compound 16, N-(3-methoxybenzyl)quinolin-4-amine] |  |  | Toxic | 18.7 | HCC1395 Cytotoxicity Efficacy [8]: 39.4 ± 13.0%
COc1cccc(CCNc2ncnc3sccc23)c1 [Compound 5n, N-(3-methoxyphenethyl)thieno[2,3-d]pyrimidin-4-amine] | not tolerated | > 50 | Inactive |  | 
COc1cccc(C(=O)Nc2ncnc3sccc23)c1 [Compound 7, 3-methoxy-N-(thieno[2,3-d]pyrimidin-4-yl)benzamide] |  | > 50 | Inactive |  | 
COc1cccc(CNc2nccc3ccccc23)c1 [Compound 13, N-(3-methoxybenzyl)isoquinolin-1-amine] |  | > 100 |  | > 100 | GSK HCC1395 Renilla Comments [8]: Non-toxic; IC50 [2, 13]: > 50 µM
CC(Nc1ncnc2sccc12)c1ccc(F)cc1 (centres unmarked) [Compound 5c, N-(1-(4-fluorophenyl)ethyl)thieno[2,3-d]pyrimidin-4-amine] |  | 2.1 ± 1.64 |  | > 50 | Emax [2, 12]: 46.9 ± 8.41%
Clc1ccc(CCNc2ncnc3ccccc23)cc1 [Compound 9g, N-(4-chlorophenethyl)quinazolin-4-amine] |  |  | Toxic |  | HCC1395 Cytotoxicity Efficacy [8]: 100 ± 0%; IC50 [9]: 13 ± 1.45 µM
Fc1cccc(CNc2ncnc3sccc23)c1 [Compound 4f, N-(3-fluorobenzyl)thieno[2,3-d]pyrimidin-4-amine] |  | > 50 | Inactive |  | 
COc1cccc(CNc2ccncn2)c1 [Compound 12, N-(3-methoxybenzyl)pyrimidin-4-amine] | no longer active | > 100 | Inactive |  | IC50 [2, 13]: > 50 µM
COc1cccc(C(C)Nc2ncnc3sccc23)c1 (centres unmarked) [Compound 5b, N-(1-(3-methoxyphenyl)ethyl)thieno[2,3-d]pyrimidin-4-amine] | inactive | > 50 |  |  | GSK HCC1395 Renilla Comments [8]: Non-toxic
N#Cc1ccccc1CNc1ncnc2sccc12 [Compound 4k, 2-((thieno[2,3-d]pyrimidin-4-ylamino)methyl)benzonitrile] |  | > 50 | Inactive |  | 
Cc1ccc(C(C)Nc2ncnc3sccc23)cc1 (centres unmarked) [Compound 5e, N-(1-(p-tolyl)ethyl)thieno[2,3-d]pyrimidin-4-amine] |  | 0.63 ± 0.21 |  | > 50 | Emax [2, 12]: 47 ± 9.67%
